Results from patent US8470534B2, “Methods of predicting resistance or sensitivity to therapies for cancer” (priority 2006, dated 2013).

Key:
[1] = system: MCF7, T47D, and Zr-75-1 cells; test: Immunoblot of cyclin D1 and RB phosphorylation after hormone deprivation with Tam; format: cell-based, human; settings: wild-type cells; CDT serum in addition to Tam, 72 hours
Method: RB-deficient cells are able to bypass estrogen ablation therapy. To determine the effect of first-line breast cancer antiestrogen therapies on RB function, cells are exposed to several therapeutically relevant conditions. Specifically, wild-type MCF7, T47D, and Zr-75-1 cells are cultured in medium containing either FBS or charcoal dextran-treated (CDT) serum in addition to Tam, so as to antagonize ER function. […] U20S and SaOS2 cells are included as controls for RB and PI 61NK4a expression levels, respectively (FIG. 4a).
(§1) To study the effect of estrogen depletion, cells are cultured for 72 hours in phenol red-free DMEM supplemented with 10% CDT serum with addition of 10^−9 M 4-HydroxyTam or 10^−6 M ICI where indicated. Cell growth assays are performed by trypsinizing cells and counting by trypan blue exclusion every 3 days.
Cells are harvested by trypsinization and lysed in RIPA buffer. Equal amounts of protein, as determined by Bio-Rad DC assay, are resolved by SDS-PAGE. Specific proteins are detected by standard immunoblotting procedures using the following primary antibodies: p16INK4a (F-12; 1:500 dilution), cyclin D1 (H295), PCNA (pc10), cyclin E (HE12), cyclin A (C-19), MCM7 (141.2), E2F3 (C-18), cdk4 (H-22), lamin B (M-20), p21 (C-19), p53 (Ab-6; 1:500 dilution), RB phospho ser 780 (9307S; 1:500 dilution) and anti-RB (G3-245; 1:100 dilution). […]

[2] = system: MCF7 donor or siRb xenograft tumors; test: Nude mouse xenograft therapeutic study; format: in vivo, nude mice; settings: for tumor response (size at 4-day intervals): E2 pellet removed
Method: The xenograft model system is then utilized to test the response of RB-deficient tumors to CDDP therapy. Tumors are developed in the flanks of mice by injecting MCF7 donor or siRb cells into the flanks of mice and implanting a […] (E2) pellet into the back. When tumors reached 100-110 mm^3, mice received 5 mg/kg CDDP every 4 days for 5 courses.
To assess the role of RB in the therapeutic response of MCF7 cells in vivo, the xenograft model is again employed. Upon the attainment of tumors of approximately 100-120 mm^3, mice are deprived of estrogen and treated with Tam. […] (FIG. 4F). […] All tumors are weighed upon exclusion, and RB-deficient tumors are more than 3 times heavier than control tumors following Tam therapy (FIG. 4G).
Five- to 8-week-old female ovariectomized athymic nude mice are anesthetized, and an E2 pellet (1.7 mg/pellet, 90-day release) or placebo is surgically implanted in the back. Following implantation, 200 μl of a PBS- and phenol red-free Matrigel matrix basement membrane, solution (3:1) containing 2×10^6 cells is injected subcutaneously into the flank, or contralaterally where noted. Tumor volume is measured with calipers every 4 days using the equation V=0.52 (width)^2 ×(length). In the therapeutic studies, when tumor volume reaches 100-120 mm^3, animals are placed into 1 of 3 therapeutic groups (each group containing at least 6 animals): control animals retaining the estrogen pellet, antiestrogen-treated animals, or CDDP-treated animals. Animals in the antiestrogen treatment group are anesthetized, the estrogen pellet is surgically removed, and a Tam pellet (5 mg/pellet, 60-day release) implanted. The CDDP-treated animals receive 5 mg/kg CDDP injected i.p. on a q4dx5 schedule (every 4 days for 5 courses). All animals are injected i.p. with 150 mg/kg BrdU (Sigma-Aldrich) 1 hour prior to euthanization. Xenograft tumors are weighed and fixed in 10% neutral buffered formalin, paraffin embedded, and cut into 5-ÿm sections. For immunohistochemical staining, sections are deparaffinized in xylene and rehydrated through a graded series of ethanol/water solutions. A BrdU detection kit is utilized as recommended by the manufacturer. BrdU incorporation is scored in a blinded manner, and at least 500 cells per section are counted from several random fields.

[3] = system: ER-positive human breast tumors; test: Recurrence outcome of ER-positive breast cancer patients on Tam monotherapy by RB/E2F target gene expression group; format: in vivo
Method: To determine the significance of RB/E2F target gene expression in human breast cancer, a tumor microarray data set representing 60 breast cancer patients with ER-positive disease who are treated with Tam monotherapy is analyzed. The tumor specimens in all cases are both micro- and macrodissected. […] This clustering placed the macro- and micro-dissected samples from 59 of 60 patients in the same gene expression groups, with only 1 tumor signature split between the high and medium gene expression groups on the condition tree.
To address the importance of the RB deficiency signature on therapeutic response, patient outcome is examined. […] For each patient, the time to disease recurrence is known, and a recurrence-free survival curve is generated (FIG. 6C). Patients responded poorly to Tam in the high expression group, wherein the median recurrence-free survival is 62.5 months, and only 35% remained recurrence free. […] Thus, compromised control of the RB/E2F axis is associated with poor response to Tam in human breast cancer.

MCF7 cells = test: Cell growth assay in CDT/Tam over 9 days; format: cell-based, human
Method: To understand the impact of RB deficiency on the response to hormone deprivation therapy, cells are cultured in CDT, CDT/Tam, or in the presence of pure antiestrogen, ICI182780 (CDT/ICI). Following treatment with these modalities, cells are labeled with BrdU to determine the influence of each agent on cell-cycle progression and the corresponding influence of RB knockdown on this response (FIG. 4B). These experiments are recapitulated in the polyclonal populations of T47D and Zr-75-1 donor and siRb88 cells (FIG. 4C). […] To elucidate the long-term growth effects of these therapies, cell proliferation assays are performed over 9 days. RB-proficient and -deficient MCF7 cells are seeded at equal densities and cultured in CDT/Tam (FIG. 4D). […] Similar results are evident in the same experiments with both T47D and Zr-75-1 RB-proficient and -deficient polyclonal pools (FIG. 4E).
as §1

[4] = high expression group, Tam monotherapy

Structure (SMILES): CC/C(=C(\c1ccccc1)c1ccc(OCCN(C)C)cc1)c1ccccc1 [Tam, tamoxifen]
- RB phosphorylation (immunoblot) [1]: RB dephosphorylation
- cyclin D1 levels (immunoblot) [1]: cyclin D1 levels decreased
- tumor response (size at 4-day intervals) ([2]; RB-deficient MCF7 tumors, Tam pellet): did not regress
- tumor size reached in the presence of Tam ([2]; RB-deficient MCF7 tumors, therapy started at approximately 100-120 mm^3): ~150 mm^3
- tumor response (size at 4-day intervals) ([2]; RB-proficient MCF7 tumors, Tam pellet 5 mg/pellet): regressing to nearly immeasurable sizes
- tumor weight, RB-deficient tumors relative to control tumors ([2]; following Tam therapy): more than 3 times
- median recurrence-free survival [3, 4]: 62.5 months
- patients remaining recurrence free [3, 4]: 35%
- patients remaining disease free ([3]; low/medium RB target gene expression groups, Tam therapy): greater than 62%
- incidence of cancer recurrence ([3]; patients in the high RB/E2F target gene group, Tam monotherapy): 65%
- incidence of cancer recurrence ([3]; patients in the other 2 groups (low/medium), Tam monotherapy): 38%
- cell proliferation over 9 days (MCF7 cells; MCF7 cells lacking RB cultured in CDT/Tam): continue to proliferate
- cell proliferation over 9 days (MCF7 cells; control (RB-proficient) MCF7 cells cultured in CDT/Tam): did not exhibit cell proliferation
